How the values were obtained:
[1] = target: opiate receptors isolated from rat brain; assay: Opiate Binding Assay (displacement of 3H-Naloxone); conditions: concentration inhibiting specific binding of 1 nM 3H-Naloxone to rat brain receptor membranes by 50%
Method: Opiate Binding Assay. The test compounds were evaluated for their ability to displace the binding of ^3 H-Naloxone to opiate receptors isolated from rat brain. Male rats [Crl: CD(SD)BR] obtained from Charles River Laboratories (Portage, MI) were sacrificed by cervical dislocation. A purified homogenate of receptor membranes was prepared from the brains according to the method described by Chang and Cuatrecasas. (K.-J. Chang and P. Cuatrecasas. Multiple Opiate Receptors: Enkephalins And Morphine Bind To Receptors Of Different Specificity. J. Biol. Chem. 254, 2610-2618 (1979).) The brains were homogenized in 10 volumes of 0.32M sucrose and centrifuged twice at 6,000xg for 15 minutes. Following centrifugation of the supernatants at 40,000xg for 30 minutes, the pellets were resuspended in 5 mM tris-HCl, and centrifuged at 6,000. The supernatant was centrifuged at 40,000xg. The resuspension in 5 mM Tris-HCl was repeated twice. The final pellet was resuspended in 2 volumes of 50 mM tris HCl (pH 7.4). The homogenate was assayed for protein content according to the method of Itzhaki and Gill (R. F. Itzhaki and D. M. Gill. A Micro-Biuret Method for Estimating Proteins. Anal. Biochem. 9, 401-410 (1964)).
The binding of the test compounds to the receptor membrane preparation was measured using a modification of the method of Pert and Snyder (C. B. Pert and S. H. Synder. Properties of Opiate-Receptor Binding in Rat Brain. Proc. Natl. Acad. Sci. 70, 2243-2247 (1973)). The receptor assay was run using final concentrations of 1 nM ^3 H-Naloxone and of tissue homogenate (0.5 mg/ml of homogenate protein. Levorphanol (1×10^-5 M) was used as the displacer for non-specific binding. Final concentration of the test compounds was 10^-5 M. The assay was run in 0.05M tris HCl (pH 7.4). Total assay volume was 1.0 ml.
Samples were incubated at 25° C. for 60 min., filtered over Whatman GF/C glass fiber filters, and rinsed twice with 4 ml washes of ice-cold buffer. The filters were air-dried at 50° C. for 30 min. After drying 10 mls of PCS was added to the vial and the radioactivity determined using a Tracor Analytic Mark III liquid scintillation counter with a counting efficiency of 48%.
The IC50 values, the concentration of the test compounds which inhibited ^3 H-Naloxone specific binding to the opiate receptor by 50%, were obtained from log-logit plots of concentration-response curves.

[2] = system: phenylbenzoquinone-induced writhing in mice; assay: Writhing assay (phenylbenzoquinone-induced writhing); format: in vivo, mouse; conditions: 30 min before phenylbenzoquinone i.p., active = writhes significantly less than saline group; for Writhing Mouse Oral: screening dose 10 mg/kg oral (intragastric); for Writhing Mouse Subc.: screening dose 10 mg/kg subcutaneous
Method: Writhing assay. Male Charles River albino mice (CD-1/HAM/1LR) weighing between 20 and 30 grams were used. Thirty minutes after subcutaneous or intragastric administration of the test compound (0.1 ml/10 gram body weight), 0.025% (w/v) phenylbenzoquinone was injected intraperitoneally (0.1 ml/10 gram body weight). Five minutes later, each mouse was placed in a large glass beaker and the number of writhes that occurred in the subsequent ten minutes is counted. A writhe consisted of dorsoflexion of the back, extension of the hindlimbs, and strong contraction of the abdominal musculature. The test compound was considered to have produced analgesia in a mouse if the number of writhes elicited by phenylbenzoquinone was equal to or less than one-half the median number of writhes recorded for the saline-treated group that day. The results were expressed as the number of mice (out of a possible ten) in which the test compound produced analgesia. […] If the initial test dose of 10 mg/kg inhibited writhing in greater than 6 of 10 mice, the effect of additional doses was evaluated and an ED50 value was calculated using a maximum likelihood function.

[3] = system: brain opiate receptor sites; conditions: partially purified brain opiate receptor sites; Bradberry et al. 1976; cited from earlier work
rat = conditions: injected directly into the brain of the rat; Belluzi et al. 1976; cited from earlier work

2,6-dimethyl-D-tyrosyl-N-(3-phenylpropyl)-D-methioninamide, monohydrochloride [Example 15]
IC50 [1]: 160 nM | Writhing Mouse Oral [2]: Inactive | Writhing Mouse Subc. [2]: Inactive

2,6-dimethyl-L-tyrosyl-N-(3-phenylpropyl)-D-methioninamide, monohydrochloride [Example 14]
IC50 [1]: 0.2 nM | Writhing Mouse Oral [2]: Active | Writhing Mouse Subc. [2]: Active

2,6-dimethyl-L-tyrosyl-α-(methylsulfinyl)-N-(3-phenylpropyl)-D-α-aminobutanamide, monohydrochloride [Example 16]
IC50 [1]: 0.4 nM | Writhing Mouse Oral [2]: Active | Writhing Mouse Subc. [2]: Active

Cc1cc(O)cc(C)c1C[C@@H](N)C(=O)N[C@H](CC[S+](C)[O-])C(=O)NCCCc1ccccc1.Cl (stereo partly drawn) [Example 17, 2,6-dimethyl-D-tyrosyl-γ-(methylsulfinyl)-N-(3-phenylpropyl)-D-α-aminobutanamide, monohydrochloride]
IC50 [1]: 96 nM | Writhing Mouse Oral [2]: Inactive | Writhing Mouse Subc. [2]: Inactive

L-tyrosyl-N-(3-phenylpropyl)-D-methioninamide, monohydrochloride [Example 4]
IC50 [1]: 16 nM | Writhing Mouse Oral [2]: Inactive | Writhing Mouse Subc. [2]: Inactive

L-tyrosyl-γ-(methylsulfonyl)-N-(3-phenylpropyl)-DL-α-aminobutanamide, monohydrochloride [Example 8]
IC50 [1]: 9.6 nM | Writhing Mouse Oral [2]: Inactive | Writhing Mouse Subc. [2]: Inactive

methionine enkephalin
binding to brain opiate receptor sites [3]: binds stereospecifically | analgesic activity (rat): weak, fleeting analgesic activity
